Patent US20040229207A1 (priority 1999, published 2004)

The molecules below were run on LAB-1 (assay: Antibiotic sensitivity testing of LAB-1). Conditions: not given.
Assay type: cell-based
Experimental: A variety of biochemical tests were performed in order to identify the species and the genus of organism. The tests included: assessment of growth conditions, culture appearance, cell appearance and staining characteristics, optimal temperature and pH growth range, oxygen requirements, antibiotic sensitivity testing, tests for catalase and oxidase (using TAXOS N™ disks), amino acid utilization as carbon source, nitrogen fixation, motility test, and a variety of commercially available tests from MICRO-ID™, OXYFERM™, ENTEROTUBE™ and BIOLOG GN MICROPLATE™.
Neomycin was tested, and the “Antibiotic Susceptibility” value was “sensitive”. For `NCC[C@H](O)C(=O)N[C@@H]1C[C@H](N)[C@@H](O[C@H]2O[C@H](CN)[C@@H](O)[C@H](O)[C@H]2O)[C@H](O)[C@H]1O[C@H]1O[C@H](CO)[C@@H](O)[C@H](N)[C@H]1O` [Amikacin], the “Antibiotic Susceptibility” value was “sensitive”. With `[H]/N=C(/N)N[C@H]1[C@H](O)[C@@H](O)[C@H](O[C@@H]2O[C@@H](C)[C@](O)(C=O)[C@H]2O[C@@H]2O[C@@H](CO)[C@H](O)[C@@H](O)[C@@H]2NC)[C@@H](N/C(N)=N\[H])[C@@H]1O` [Streptomycin] the “Antibiotic Susceptibility” value was “resistant”. In the case of Penicillin, the “Antibiotic Susceptibility” value is reported as “resistant”. With `CC[C@H]1OC(=O)[C@H](C)[C@@H](O[C@H]2C[C@@](C)(OC)[C@@H](O)[C@H](C)O2)[C@H](C)[C@@H](O[C@@H]2O[C@H](C)C[C@H](N(C)C)[C@H]2O)[C@](C)(O)C[C@@H](C)C(=O)[C@H](C)[C@@H](O)[C@]1(C)O` [Erythromycin] the “Antibiotic Susceptibility” value was “resistant”. With `CO[C@@H]1[C@@H](OC(N)=O)[C@@H](O)[C@H](Oc2ccc3c(O)c(NC(=O)c4ccc(O)c(CC=C(C)C)c4)c(=O)oc3c2C)OC1(C)C` [Novobiocin] the “Antibiotic Susceptibility” value was “sensitive”. In the case of `CC1(C)S[C@@H]2[C@H](NC(=O)[C@H](N)c3ccccc3)C(=O)N2[C@H]1C(=O)O` [Ampicillin], the “Antibiotic Susceptibility” value is reported as “resistant”. Polymyxin B was tested, and the “Antibiotic Susceptibility” value was “sensitive”.

The molecules below were run on LAB-1 strain (assay: Inhibition of LAB-1 growth, cell attachment and biofilm production in growth media). Conditions: 0.1-1.0% (w/v) in liquid or solid growth media.
Assay type: cell-based
Text: It would be apparent to one of ordinary skill in the art to apply the above methods to inhibit the production of mucoid compounds and biofilm in any mucoid organism.
With `CC(C)Cc1ccc(C(C)C(=O)O)cc1` (stereo not shown) [ibuprofen, 2-(4-isobutylphenyl)-propionic acid] the “growth, development, cell attachment and biofilm production of LAB-1” value was “differentially inhibits”. In the case of `CCC(=O)O` [propionic acid], the “growth, development, cell attachment and biofilm production of LAB-1” value is reported as “differentially inhibits”.
